From patent US6313177A, “D-mannitol derivatives as HIV aspartyl protease inhibitors” (Pharmacor Inc., priority 1999, dated 2001) come the findings set out here.

Data set [1] has as its target T1, recombinant HIV-1 protease (Human immunodeficiency virus type 1 group M subtype B, UniProt P04585).
T1 construct: recombinant HIV-1 protease; purchased Bachem Bioscience
Description: Fluorometric (FRET) enzymatic assay for the inhibition constant (Ki) against the HIV protease. Format: biochemical. The source says: Enzymatic Assay for Determining the Inhibition Constant (Ki) of Synthetic Compounds Prepared Against the HIV Protease
This is a fluorometric assay based on the cleavage by protease of a substrate carrying a donor group (EDANS, excitation at 340 nm and emission at 490 nm) and an acceptor group (DABCYL) on each side of the cleavage site, interacting together through fluorescence resonance energy transfer (FRET). Cleavage of the substrate by protease stops energy exchange between the two groups, resulting in a time-dependent increase in fluorescence intensity that is linearly related to the extent of substrate hydrolysis.
The enzymatic assay is done at 30° C. in a spectrophotometer microcuvet, in a total volume of 400 μL. The apparatus used for readings is a UV-visible Cary 1 spectrophotometer made by Varian. The reaction is run first in the absence of protease inhibitors for 2 min, using 355 μL of buffer at pH 4.7 (sodium acetate 100 mM, NaCl 1 M, EDTA 1 mM, DTT 1 mM, dimethylsulfoxide 10%, and BSA 1 mg/mL), 40 μL of substrate H-2930 from Molecular Probes (final concentration 10 μM) and 5 μL of recombinant HIV-1 protease (final concentration 18.3 nM) purchased from Bachem Bioscience. Fluorescence readings at […] are taken continuously during the reaction, allowing determination of the enzyme's initial velocity (v0). At the end of the 2 min incubation, the potential inhibitor at a defined concentration in a volume of 2 μL is added to the reaction, and fluorescence readings are taken for another 2 min, allowing determination of enzyme velocity (vi) in the presence of the inhibitory compound. Several concentrations of the putative inhibitors are tested in the assay. After calculation of vo and vi, the inhibition constant (Ki) of the compound is determined using the equation of Henderson: [formula]
and [I]=inhibitor concentration, [S ]=substrate concentration, Km=Michaelis-Menten constant, Kiapp =apparent Ki
Note that the Michaelis-Menten constant of HIV protease is determined by running the assay without inhibitors, using several concentrations of substrate, and plotting the results as a Cornish-Bowden graph with the ratio substrate concentration/velocity as the ordinate and substrate concentration as the abscissa.

A short description of data set [2]: Cytotoxicity (MTT assay / trypan blue exclusion test). In kind it is cell-based. As to conditions: 7 or 10 days, 37° C., measure (IC50/CC50) not stated. Here is the method: Two assays were performed to evaluate the potentiel toxicity of the compounds in infected cells:
1) Briefly, cells were grown in 96-well microtiter plates at 37° C. in complete culture medium in the presence of the compound to test. Control cells grown in the absence of the compound received the same amount of solvent used to dissolve the inhibitor (in this case, dimethylsulfoxide at a final concentration of 0.1 to 0.3%). After 7 or 10 days, MTT was added to the cultures for 4 hours at 37° C. as described in the literature (Schwartz et al., AIDS Res. Hum. Retrov. 4: 441-448, 1988; Mosmaun, J. Immunol. Meth., 65: 55-63, 1983) and the changes in absorbance associated with metabolism of MTT by viable cells was monitored with an ELISA microplate reader at a test wavelength of 540 nm.
2) The cells were grown as described above in 24-well microplates or 25-cm tissue culture flasks in the presence or absence of the tested compounds, and the cell viability after 7 or 10 days was determined by the trypan blue exclusion test, using a hemacytometer and a microscope at 100× magnification.
In general terms: Formazan colour is commonly taken as a measure of viable cells.

The mark [3] stands for this setting: Table 2, tetra-substituted D-mannitol derivatives, pH 4.7, 30° C., substrate 10 μM, protease 18.3 nM.
The mark [4] stands for this setting: Table 1, benzylated D-mannitol derivatives, pH 4.7, 30° C., substrate 10 μM, protease 18.3 nM.
Setting [5] is: Table 3, di- and tri-substituted D-mannitol derivatives, pH 4.7, 30° C., substrate 10 μM, protease 18.3 nM.

Molecules are shown by their SMILES. pKi: −log10 of the molar value. Where two headings read alike, the source gives them in different places.

A word on the pKi: it is the negative decadic logarithm of the Ki, by convention in mol/L. The term CC50 denotes the concentration giving 50% cytotoxicity. High values mean lower toxicity to the cells, low ones greater toxicity to the cells. In the case of `O[C@@H]([C@H](O)[C@@H](COCc1ccccc1)OCc1ccccc1)[C@@H](COCc1ccccc1)OCc1ccccc1` [Compound 1, 1,2,5,6-tetra-O-benzyl-D-mannitol], the pKi in data set [1] is 5.70. The compound further registered a CC50 in data set [2] of 15 µM. As for `O[C@@H]([C@H](O)[C@@H](COCc1ccccc1)OCc1ccccn1)[C@@H](COCc1ccccc1)OCc1ccccn1` [Compound 88, 1,6-di-O-benzyl-2,5-di-O-(2-pyridylmethyl)-D-mannitol], in data set [1] (setting [3]), the pKi was 4.55. In the case of `C=CCOC[C@@H](OCc1ccccc1)[C@@H](O)[C@H](O)[C@@H](COCC=C)OCc1ccccc1` [Compound 90, 1,6-di-O-allyl-2,5-di-O-benzyl-D-mannitol], the pKi in data set [1] (setting [3]) was 4.92. `N#Cc1ccc(COC[C@@H](OCc2ccccc2)[C@@H](O)[C@H](O)[C@@H](COCc2ccc(C#N)cc2)OCc2ccccc2)cc1` [Compound 28, 1,6-di-O-(4-cyanobenzyl)-2,5-di-O-benzyl-D-mannitol]: the pKi in data set [1] (setting [4]) is 5.37. In the case of `CSC(=S)O[C@H](COCc1ccccc1)[C@@H](O)[C@H](O)[C@@H](COCc1ccccc1)OCc1ccc(F)cc1` [Compound 106, 1,6-di-O-benzyl-2-O-(4-fluorobenzyl)-5-O-(methylthiothioxo)-D-mannitol], the pKi in data set [1] (setting [5]) is less than 5.30.

Take `O[C@@H]([C@H](O)[C@@H](COCc1ccccc1F)OCc1ccc(F)cc1)[C@@H](COCc1ccccc1F)OCc1ccc(F)cc1` [Compound 40, 1,6-di-O-(2-fluorobenzyl)-2,5-di-O-(4-fluorobenzyl)-D-mannitol]: the pKi in data set [1] (setting [4]) is 6.55.

For the compound `Oc1ccc(CO[C@H](COCc2ccccc2F)[C@@H](O)[C@H](O)[C@@H](COCc2ccccc2F)OCc2ccc(O)cc2)cc1` [Compound 5, 1,6-di-(2-fluorobenzyl)-2,5-di-(4-hydroxybenzyl)-D-mannitol], the pKi in data set [1] (setting [4]) was 5.57. As for `C=CCO[C@H](COCc1ccccc1)[C@@H](O)[C@H](O)[C@@H](COCc1ccccc1)OCC=C` [Compound 82, 1,6-di-O-benzyl-2,5-di-O-allyl-D-mannitol], the pKi in data set [1] (setting [3]) is 4.96. Take `Oc1ccc(COC[C@@H](OCc2ccc(F)cc2)[C@@H](O)[C@H](O)[C@@H](COCc2ccc(O)cc2)OCc2ccc(F)cc2)cc1` [Compound 4, 1,6-di-O-(4-hydroxybenzyl)-2,5-di-O-(4-fluorobenzyl)-D-mannitol]: the pKi in data set [1] (setting [4]) is 6.40. Take `Cc1ccc(CO[C@H](COCc2ccccc2)[C@@H](O)[C@H](O)[C@@H](COCc2ccccc2)OCc2ccc(C)cc2)cc1` [Compound 24, 1,6-di-O-benzyl-2,5-di-O-(4-methylbenzyl)-D-mannitol]: the pKi in data set [1] (setting [4]) is 5.43. For `NCc1ccc(CO[C@H](COCc2ccccc2)[C@@H](O)[C@H](O)[C@@H](COCc2ccccc2)OCc2ccc(CN)cc2)cc1` [Compound 46, 1,6-di-O-benzyl-2,5-di-O-(4-aminomethylbenzyl)-D-mannitol], the pKi in data set [1] (setting [4]) is 4.57. As for `Cc1ccc(COC[C@@H](OCc2ccccc2)[C@@H](O)[C@H](O)[C@@H](COCc2ccc(C)cc2)OCc2ccccc2)cc1` [Compound 26, 1,6-di-O-(4-methylbenzyl)-2,5-di-O-benzyl-D-mannitol], the negative-log Ki (pKi) in data set [1] (setting [4]) is 5.52. The same measure, in the same setting: for `NC(=O)c1ccc(CO[C@H](COCc2ccccc2)[C@@H](O)[C@H](O)[C@@H](COCc2ccccc2)OCc2ccc(C(N)=O)cc2)cc1` [Compound 44, 1,6-di-O-benzyl-2,5-di-O-(4-carboxamidobenzyl)-D-mannitol] the value was 4.70.

Regarding `O[C@@H]([C@H](O)[C@@H](COCc1ccccc1F)OCc1cccc(F)c1)[C@@H](COCc1ccccc1F)OCc1cccc(F)c1` [Compound 57, 1,6-di-O-(2-fluorobenzyl)-2,5-di-O-(3-fluorobenzyl)-D-mannitol], the pKi in data set [1] (setting [4]) is 5.82. For `O[C@@H]([C@H](O)[C@@H](COCc1ccccc1F)OCc1ccc(Br)cc1)[C@@H](COCc1ccccc1F)OCc1ccc(Br)cc1` [Compound 34, 1,6-di-O-(2-fluorobenzyl)-2,5-di-O-(4-bromobenzyl)-D-mannitol], the negative-log Ki (pKi) in data set [1] (setting [4]) is 5.72. With `O[C@@H]([C@H](O)[C@@H](COCc1ccccc1)OCc1ccccc1F)[C@@H](COCc1ccccc1)OCc1ccccc1F` [Compound 21, 1,6-di-O-benzyl-2,5-di-O-(2-fluorobenzyl)-D-mannitol], the pKi in data set [1] was 5.43.

Consider `CC(C)COC(=O)c1ccc(COC[C@@H](OCc2ccccc2)[C@@H](O)[C@H](O)[C@@H](COCc2ccc(C(=O)OCC(C)C)cc2)OCc2ccccc2)cc1` [Compound 30, 1,6-di-O-(4-carboisobutoxybenzyl)-2,5-di-O-benzyl D-mannitol], for which the pKi in data set [1] (setting [4]) was less than 5.52. For the compound `O[C@@H]([C@H](O)[C@@H](COCc1ccccc1)OCc1cccs1)[C@@H](COCc1ccccc1)OCc1ccc(F)cc1` [Compound 96, 1,6-di-O-benzyl-2-O-(4-fluorobenzyl)-5-O-(2-thienylmethyl)-D-mannitol], the negative-log Ki (pKi) in data set [1] (setting [3]) was 6.64.

For the compound `O[C@@H]([C@H](O)[C@@H](COCc1ccccc1F)OCc1ccccc1)[C@@H](COCc1ccccc1)OCc1ccccc1` [Compound 10, 1,2,5-tri-O-benzyl-6-O-(2-fluorobenzyl)-D-mannitol], the negative-log Ki (pKi) in data set [1] (setting [4]) was 6.40. For the compound `COC(=O)c1ccc(CO[C@H](COCc2ccccc2)[C@@H](O)[C@H](O)[C@@H](COCc2ccccc2)OCc2ccc(C(=O)O)cc2)cc1` [Compound 59, 1,6-di-O-benzyl-2-O-(4-carboxybenzyl)-5-O-(4-carbomethoxybenzyl)-D-mannitol], the negative-log Ki (pKi) in data set [1] (setting [4]) was 5.85. For `C=CCOC[C@@H](OCC=C)[C@@H](O)[C@H](O)[C@@H](COCC=C)OCC=C` [Compound 78, 1,2,5,6-tetra-O-allyl-D-mannitol], in data set [1] (setting [3]), the negative-log Ki (pKi) was 3.72. For the compound `O[C@@H]([C@H](O)[C@@H](COCc1ccccc1)OCc1ccc2ccccc2c1)[C@@H](COCc1ccccc1)OCc1ccc2ccccc2c1` [Compound 80, 1,6-di-O-benzyl-2,5-di-O-(2-naphthylmethyl)-D-mannitol], the pKi in data set [1] (setting [3]) was less than 5.90.

On to `O[C@@H]([C@H](O)[C@@H](COCc1ccccc1)OCc1ccc(F)cc1)[C@@H](COCc1ccccc1)OCc1ccc(F)cc1` [Compound 16, 1,6-di-O-benzyl-2,5-di-O-(4-fluorobenzyl)-D-mannitol], for which the pKi in data set [1] (setting [4]) is 6.15. Still for that read-out and setting: then `O[C@@H]([C@H](O)[C@@H](COCc1ccc(OCc2ccccc2)cc1)OCc1ccc(F)cc1)[C@@H](COCc1ccc(OCc2ccccc2)cc1)OCc1ccc(F)cc1` [Compound 58, 1,6-di-O-(4-benzyloxybenzyl)-2,5-di-O-(4-fluorobenzyl)-D-mannitol], with 5.30. For `Oc1ccc(COC[C@@H](OCc2ccc(F)cc2)[C@@H](O)[C@H](O)[C@@H](COCc2ccc(OCc3ccccc3)cc2)OCc2ccc(F)cc2)cc1` [Compound 76, 1-O-(4-hydroxybenzyl)-6-O-(4-benzyloxybenzyl)-2,5-di-O-(4-fluorobenzyl)-D-mannitol], the pKi in data set [1] (setting [4]) is 6.05.

Turning to `O[C@@H]([C@H](O)[C@@H](COCc1ccc(F)cc1)OCc1ccccc1)[C@@H](COCc1ccc(F)cc1)OCc1ccccc1` [Compound 31, 1,6-di-O-(4-fluorobenzyl)-2,5-di-O-benzyl-D-mannitol], the pKi in data set [1] (setting [4]) is 5.60. On to `O[C@@H]([C@H](O)[C@@H](COCc1cccc(F)c1)OCc1ccccc1)[C@@H](COCc1cccc(F)c1)OCc1ccccc1` [Compound 53, 1,6-di-O-(3-fluorobenzyl)-2,5-di-O-(benzyl)-D-mannitol], for which, in data set [1] (setting [4]), the pKi is 5.82. `CSC(=S)O[C@H](COCc1ccccc1)[C@@H](O)[C@H](O)[C@@H](COCc1ccccc1)OC(=S)SC` [Compound 101, 1,6-di-O-benzyl-2,5-di-O-(methylthiothioxo)-D-mannitol]: in data set [1] (setting [5]), the pKi is less than 5.30.
